Like-named read-outs stand apart in the source and are kept apart here. Each block holds one compound with its values, some of them ahead of it.
What was measured:
sickle erythrocytes [1] = conditions: Lubin et al 1975; cited from earlier work
[2] = system: inner membrane ATPase (adenosine triphosphatase); test: inner membrane ATPase activity; assay type: biochemical; conditions: at comparable levels of amidination (FIG. 2)
Source text: FIG. 2 is a graph illustating the effect of dimethylsuberimidate (DMS) and ethylacetimidate (EA) on inner membrane ATPase (adenosine triphosphatase) activity. Open symbols represent DMS-treated membranes, and closed symbols represent EA-treated membranes.
(§1) When compared to bifunctional imidates, monoimidates have major advantages as therapeutic agents for the treatment of sickle cell disease. One important difference between the two classes of reagents is their relative effect on enzyme activity. […] The results as shown, respectively in Table II and FIG. 2. To facilitate a comparison of imidate action, effects were related to extent of amidination as measured by percent amino group decrease rather than the absolute reagent concentration.
In the experiment designated by the closed circles in FIG. 2, membranes were treated with high concentrations of EA to determine the extent of amidination required for complete inhibition of activity. The concentrations of EA required for complete inhibition of activity are considerably in excess of the amount required to inhibit sickling.

succinate oxidase = test: electron transport: succinate oxidase of mitochondrial inner membranes; assay type: biochemical; conditions: for effect of treatment on succinate oxidase, in words: at comparable levels of amidination
Source text: as §1

ascorbate-TMPD oxidase = test: electron transport: ascorbate-TMPD oxidase of mitochondrial inner membranes; assay type: biochemical; conditions: for effect of treatment on ascorbate-TMPD oxidase, in words: at comparable levels of amidination
Source text: as §1

NADH oxidase = test: electron transport: NADH oxidase of mitochondrial inner membranes; assay type: biochemical; conditions: for effect of treatment on NADH oxidase, in words: at comparable levels of amidination
Source text: as §1

[3] = biological target: T1, hemoglobin of normal cells (Homo sapiens, UniProt P68871+P69905); test: hemoglobin-oxygen affinity (P50), normal cells; assay type: cell-based; conditions: 1 mM
T1 construct: endogenous in cells; host or cells: normal erythrocytes from healthy volunteers
Experimental: (§2) Cells were washed with Krebs-Henseleit Buffer (pH 7.4) to remove non-erythrocyte blood elements and resuspended in the same medium to a final hematocrit of 20-40%. Erythrocyte suspensions (4% hematocrit) were incubated in KHB (pH 8.5) containing freshly dissolved EA (1-10 mM). After incubation at room temperature (20°-22°) for 30 min, the cells were washed twice with KH buffer (pH 7.4) and resuspended either in the original plasma (40% hematocrit) for analysis of sickling or in other solutions as described below. To amidinate under anoxia the cells were equilibrated with nitrogen in a tonometer until no oxygen could be detected polarographically. Imidates were added in the dry state to anaerobic cell suspensions. Following treatment, the suspensions were diluted 1:1 with 0.1M Tris-acetate--0.15M NaCl buffer (pH 6.0) to quench amidination, and the cells washed as described above.
(§3) The oxygen affinity of whole blood (P50) was determined in a tonometer as in B. H. Lubin et al, cited above.
(§4) Since oxyhemoglobin and deoxyhemoglobin differ in quaternary structure and since the structural differences may affect the manner in which imidates react with hemoglobin, amidination was carried out in the presence and absence of oxygen and the effect on oxygen affinity was then examined.

[4] = biological target: T2, hemoglobin of sickle cells (Homo sapiens, UniProt P68871+P69905, E7V); test: hemoglobin-oxygen affinity (P50), sickle cells; assay type: cell-based; conditions: 1 mM
T2 construct: endogenous in cells; host or cells: sickle erythrocytes (Children's Hospital, Oakland, CA)
Experimental: as §2, §3, §4

in vivo = conditions: ip, intraperitoneal
Source text: Each compound was made up in KH buffer (280 Mosm) buffered to pH 7.4 with 5N NaOH. The final volume for each injection was 1 cc in rats in 0.5 cc in mice.

erythrocytes = test: hemolysis following incubation under the conditions of amidination; assay type: cell-based, human; conditions: after incubation under the conditions of amidination
Experimental: as §2

sickle erythrocytes [5] = test: in vitro sickling of sickle erythrocytes after amidination; assay type: cell-based, human
Experimental: as §2
The cells were deoxygenated with freshly prepared sodium metabisulfite, fixed with 10% formaldehyde, and examined microscopically. Hypoxic conditions: Cell suspensions were deoxygenated by equilibration with 3% oxygen. Five hundred cells were conted to ascertain the extent of sickling.

rats = test: animal survival after exchange of treated blood; assay type: in vivo, rat; conditions: 30mM in whole blood
Experimental: In experiments conducted to determine the effect of monoimidates on animal survival, rats were treated with ethylacetimidate at levels of 30mM in whole blood under conditions similar to the in vitro studies described above. This level fo treatment is at least 30 times higher than required for prevention of sickling in vitro. At least three-fourths of the blood was treated and exchanged.

sickle erythrocytes [6] = test: net potassium leak which accompanies sickling; assay type: cell-based, human

SMILES: COC(=N)CCCCC(=N)OC [DMA, dimethyl adipimidate]
inhibition of sickling in vitro (literature report) (sickle erythrocytes [1]): inhibit sickling in vitro

effect of treatment on ATPase activity, in words [2]: markedly inhibited
Succinate oxidase activity (% control) (succinate oxidase; 2 mM): 62 % control
Succinate oxidase activity (% control) (succinate oxidase; 10 mM): 22 % control
effect of treatment on succinate oxidase, in words (succinate oxidase): markedly inhibited
Ascorbate-TMPD oxidase activity (% control) (ascorbate-TMPD oxidase; 2 mM): 61 % control
Ascorbate-TMPD oxidase activity (% control) (ascorbate-TMPD oxidase; 10 mM): 28 % control
effect of treatment on ascorbate-TMPD oxidase, in words (ascorbate-TMPD oxidase): markedly inhibited
NADH oxidase activity (% control) (NADH oxidase; 2 mM): 58 % control
NADH oxidase activity (% control) (NADH oxidase; 10 mM): 10 % control
effect of treatment on NADH oxidase, in words (NADH oxidase): markedly inhibited
SMILES: COC(=N)CCCCCCC(=N)OC [DMS, dimethylsuberimidate, reference compound]

SMILES: CCOC(C)=N [EA, ethyl acetimidate]
effect of treatment on ATPase activity, in words [2]: significantly less inhibitory
Succinate oxidase activity (% control) (succinate oxidase; 4 mM): 61 % control
Succinate oxidase activity (% control) (succinate oxidase; 20 mM): 45 % control
effect of treatment on succinate oxidase, in words (succinate oxidase): significantly less sensitive to EA than DMS
P50 ([3]; amidinated deoxygenated): 28.0 mm Hg
P50 ([3]; amidinated oxygenated): 25.0 mm Hg
P50 ([4]; amidinated deoxygenated): 35.0 mm Hg
P50 ([4]; amidinated oxygenated): 27.0 mm Hg
Ascorbate-TMPD oxidase activity (% control) (ascorbate-TMPD oxidase; 4 mM): 73 % control
Ascorbate-TMPD oxidase activity (% control) (ascorbate-TMPD oxidase; 20 mM): 64 % control
effect of treatment on ascorbate-TMPD oxidase, in words (ascorbate-TMPD oxidase): significantly less sensitive to EA than DMS
LD50 (in vivo; mouse, mice, read-out: LD50 (Lethal dose for 50% of the animals)): 950 mg/kg
LD50 (in vivo; rat, rats): 900 mg/kg
hemolysis (erythrocytes): Negligible hemolysis
inhibition of sickling (sickle erythrocytes [5]; 2-5 mM imidate, in vitro): nearly complete inhibition
inhibition at 1000 µM (sickle erythrocytes [5]; Homo sapiens, Erythrocyte, 1 mM imidate, in vitro, read-out: prevention of sickling): 70 to 80%
prevention of sickling on renewed deoxygenation of cells amidinated under anoxia (sickle erythrocytes [5]; compared with amidination in the presence of oxygen): sickling was prevented to the same degree
effectiveness under hypoxic and anoxic conditions (sickle erythrocytes [5]; deoxygenation with 3% oxygen or sodium metabisulfite): effective under both hypoxic and anoxic conditions
inhibition of sickling (sickle erythrocytes [5]; low imidate concentrations (1-2mM)): approximately 80%
deleterious effects after exchange of treated blood (rats; at least three-fourths of the blood treated and exchanged, three experiments): no deleterious effects
hematocrits after treatment (rats; due to the loss of blood during the transfusion): slightly reduced
NADH oxidase activity (% control) (NADH oxidase; 4 mM): 78 % control
NADH oxidase activity (% control) (NADH oxidase; 20 mM): 56 % control
effect of treatment on NADH oxidase, in words (NADH oxidase): significantly less sensitive to EA than DMS

SMILES: COC(C)=N [methylacetimidate, methyl acetimidate]
prevention of in vitro sickling compared with EA (sickle erythrocytes [5]): as effective as EA
net potassium leak which accompanies sickling (sickle erythrocytes [6]): elimination of the net potassium leak

SMILES: CCCC(=N)OC [methylbutyrimidate, methyl butyrimidate]
prevention of in vitro sickling compared with EA (sickle erythrocytes [5]): as effective as EA

From patent US4048325A, “Low toxicity method of inhibiting sickling of sickle erythrocytes” (The United States of America as represented by the United …, priority 1976, dated 1977)
